Assay results taken from patent US11690856B2, “Compounds for treating CMV related diseases” (INSERM (INSTITUT NATIONAL DE LA SANTE ET DE LA RECHERCHE …, priority 2017, dated 2023).

Assays:
Format in all cases: in vivo, rat
[1] = tested on: CMV-infected pups; experiment: Righting reflex sensorimotor test; details: treated in utero vs untreated infected pups; P1-P20; p=0.025
Procedure: (§1) Wistar rats (Janvier Labs, France) were raised and mated at INMED Post Genomic Platform (PPGI) animal facility. Rat cytomegalovirus (rat CMV) recombinant Maastricht strain (RCMV-Δ145-147-gfp) with a green fluorescent protein (GFP) expression cassette, and its production, purification and titration, were reported previously (17). In utero icv injections were performed at E15 as previously described (9,18) in embryos from timed pregnant rats that were anaesthetized with ketamine (100 mg/kg)/xylazine (10 mg/kg). […] Microglia status was modified in the embryos in vivo with doxycycline per os given to the mother throughout pregnancy (200 mg/kg in food pellet chow, Bioserv).
(§2) For righting reflex evaluation, rat pups were placed in a supine position, and the time required to flip to the prone position was measured. For the cliff aversion reflex, animals were placed with their forepaws overhanging the edge of a board; the time required to turn >90° away from the edge was recorded. […] Generalized tonic-clonic epileptic seizures were detected visually, usually after animal handling, especially during cage changing and behavioral testing. […] For each rat, the reference electrode was inserted beneath the pinna of the assessed ear, the positive electrode beneath the skin on the vertex of the head, the ground electrode on the animal's back. […] Impedances were monitored to be below 2000Ω. […]

[2] = tested on: microglia; experiment: Immunohistochemistry and cell counting of microglia (Iba1, Ed1/Cd68) in CMV-infected pup brain; details: P1, lateral ventricular area; per os to dam E0 to birth; CMV untreated 42.74%, MEM 14.28%
Procedure: Immunohistochemistry experiments were carried out on coronal brain slices (50-100 μm, vibratome, Microm; 14 μm, cryostat, Leica) as described previously (9) with the following primary (anti-Iba1: 1/500, Wako; anti-Cd68, Ed1 clone: 1/200, Millipore) and secondary (Alexa Fluor 568 or 647-conjugated goat anti-rabbit or anti-mouse IgGs; Life Technologies) antibodies. Hoescht 33258 (1:2000, Sigma) was used for nuclei staining.
For cell counting analyses, at least three adjacent brain sections were analyzed throughout the entire z-dimension for each sample using confocal microscopy. […] Cells were counted manually in each brain with Cell Profiler cell image analysis software (Broad Institute Cambridge, Mass., USA). For each channel of stack images, mean image intensity was measured using “MeasureImageIntensity” module and cells were identified with “IdentifyPrimaryObjects” module, in which Min and Max typical diameter of objects was set between 20 and 80 pixel units, respectively, and threshold was corrected by the mean intensity measured previously. Then, using mask images generated with the aforementioned module, colocalization between channels was evaluated with “RelateObjects” and “MaskObjects” in order to determine the number of overlapping objects. Finally, data were exported to a spreadsheet containing the number of quantified cells for each staining and of colocalizations. […]

[3] = tested on: CMV-infected pups; experiment: Hindlimb paralysis, determined visually
Procedure: as §1, §2

[4] = tested on: CMV-infected pups; experiment: Postnatal survival of pups infected with CMV in utero
Procedure: as §1
Data were expressed as means ±s.e.m. unless otherwise stated. Non-parametric Mann Whitney test (two-tailed) followed by Bonferroni correction if needed, and non-parametric Kruskall-Wallis test to detect heterogeneous distribution between groups followed by Dunn's post test for multiple comparisons. were used whenever appropriate. Univariate Cox analysis and Fisher's exact test (two-tailed) were used to compare between survival distributions and rates and parametric Student's t test was used to compare between weight gains, whereas Chi-square test with Bonferroni correction and mixed model for repeated data using PROC GLIMMIX with sas 9.4 were used for all other phenotypic comparisons between groups of animals.

[5] = tested on: CMV-infected pups; experiment: Cliff aversion reflex sensorimotor test; details: treated in utero vs untreated infected pups; P1-P20; p<10^-4
Procedure: as §1, §2

[6] = tested on: microglia; experiment: Flow cytometry of brain leukocytes (CD45, CD11b/c, RT1B) for microglia status
Procedure: as §1
Leukocytes from brains obtained from anesthetized P1 or P7 pups were isolated as previously described (9). 1 to 3×10^6 leukocytes were incubated with Zombie NIR Fixable Viability kit (1:200; Bio legend) for 20 min at RT. Fc receptors were blocked using mouse anti-rat CD32 antibody (FcγII receptor, clone D34-485) for 10 min. at 4° C. to prevent against nonspecific binding. Cells were then stained with antibodies against combinations of cell surface markers as previously listed and described (9). An average of 1.3×10^5 living singlet cells were analyzed per brain equivalent on a BD LSRFortessa cell cytometer and raw data were analyzed using FACSDiva V8.0 software (BD Biosciences).

[7] = tested on: CMV-infected pups; experiment: Generalized tonic-clonic epileptic seizures, detected visually
Procedure: as §1, §2

In the case of C[C@H]1c2cccc(O)c2C(=O)C2=C(O)[C@]3(O)C(=O)C(C(N)=O)=C(O)[C@@H](N(C)C)[C@@H]3[C@@H](O)[C@@H]21 [doxycycline], the “success to righting, odds ratio” value [1] was 2.6, the “phagocytic activation index (PAI), ratio of Iba1+ Ed1+ cells to total Iba1+ cells” value [2] was 17.32% and the “CMV-infected pups displaying hindlimb paralysis” value ([3]; first three postnatal weeks, untreated 83.3%, p=0.001) was 50%. The “drop in risk of hindlimb paralysis” value ([3]; treated vs untreated, p=0.03) was 6.2 fold, the “infected pups survived at P20” value ([4]; dams treated per os throughout pregnancy, untreated 29.6%) was 86.1% and the “lower risk to postnatal death” value ([4]; first three postnatal weeks, treated in utero vs untreated CMV-infected, p=0.0006) was 5.1. The “success to cliff aversion, odds ratio” value [5] was 9.9, the “proportion of reactive CD45low/int, CD11b/c+, RT1B+ microglia (fraction IV)” value ([6]; P7, after treatment discontinuation, untreated 58.93%) was 55.76% and the “proportion of MHC class II-positive reactive microglia (fraction IV: CD45low/int, CD11b/c+, RT1B+)” value ([6]; whole brain at P1, CMV untreated 13.98%, controls 0.73%) was 5.66%. For the same molecule, the “decrease in risk of epileptic seizures” value ([7]; period of evaluation, treated in utero, p<10^-4) was 5.9 fold and the “proportion of epileptic CMV-infected rats” value ([7]; untreated 24%, p=0.12) was 11%.
